Data: patent publication US7144867B2, “Anticancer glycoside compounds” (priority 2004, dated 2006)
In brackets after ≈: the same amount, converted by molar mass.

Experiments:
cancer cells = assay: Anti-cancer / apoptotic promoting activity, method not described
[1] = tested on: HUVEC (human umbilical vein endothelial cells); assay: Angiogenesis, tube formation on Matrigel, Frondoside B (Example 5); type: cell-based; conditions: concentrations in the range of 1 μM and greater; contemplated
Method: (§1) Test Substance and Concentration.
Cell Line and Culture Media. […] The culture medium used is Endothelial Cell Growth Medium with 10% fetal bovine serum, which is supplemented with 1% Antibiotic-Antimycotic.
Evaluation of anti-proliferation for test substances. Matrigel matrix is thawed, kept on ice at 4° C. and 50 μL transferred to each well of a 96-microwell tissue culture plate. The plate is incubated at 37° C. for at least one hour to allow the matrix solution to solidify before treatment.
(§2) Aliquots of 200 μl of (HUVEC) suspension (about 1.5×10^4 cells/well) are placed in 96-well microtiter plate. Two microliters of compound test solution or vehicle (40% DMSO) is then added per well in duplicate and incubated at 5% CO2 at 37° C. for 18 hours. The final concentration of DMSO is 0.4%. […] Failure to form continuous networks between cell bodies in the presence of test substance is photographed and scored as to the extent of tube disruption at a magnification of 40×. […] The minimum inhibitory concentration (MIC) is calculated to assess the effect of the test substance on angiogenesis.

[2] = tested on: angiogenesis in the animal; assay: Treatment of animals, anti-angiogenic evaluation (Example 6); type: in vivo; conditions: contemplated; range of appropriate doses
Method: Frondoside A or B is evaluated for anti-angiogenic (e.g., for research, drug screening or therapeutic purposes) in live animals. Animals (e.g., having or modeling a disease characterized by unwanted angiogenesis) are treated with a range of appropriate doses of Frondoside A or B. Exemplary dosages and dosage schedules include, but are not limited to, those described herein.

[3] = tested on: DLD-1 (human colon adenocarcinoma); assay: cells; conditions: for Percent Growth (Mean ± SEM, n = 2): 72-hour
Method: Test Substance and Concentration. Frondoside A (CBR-24) was dissolved in 100% DMSO and then diluted with sterile distilled water to obtain initial working solutions of 10000, 1000, 100, 10, and 1 μM in 40% DMSO. A 100-fold dilution was further made in culture media to generate final assay concentration of 100, 10, 1, 0.1 and 0.01 μM in 0.4% of DMSO.
Cell Line and Culture Media. The tumor cell line DLD-1 (human colon adenocarcinoma), obtained from American Type Culture Collection (ATCC CCL-221), was incubated in 95% air-5% CO2 gas mixture at 37° C. The culture medium used was RPMI 1640 with 10% fetal bovine serum, which was supplemented with 1% Antibiotic-Antimycotic.
(§3) Evaluation of anti-proliferation for test substances. Aliquots of 100 μl of cell suspension (about 2.5×10^3 cells/well) were placed in 96-well microtiter plates in an atmosphere of 5% CO2 at 37° C. […] Thus, the final concentration of DMSO was 0.4%. The Frondoside A was evaluated for possible inhibitory effects on cell proliferation at concentrations of 100, 10, 1, 0.1 and 0.01 μM. At the end of incubation, 20 μl of 90% alamarBlue reagent was added to each well for another 6 hour incubation before detection of cell viability by fluorescent intensity. Fluorescent intensity was measured using a Spectrafluor Plus plate reader with excitation at 530 nm and emission at 590 nm.
(§4) Determination of IC50, TGI and LC50. The measured results were calculated by the following formula: PG(%)=100%×(Mean Ftest−Mean Ftime0)/(Mean Fctrl−Mean Ftime0) If (Mean Ftest−Mean Ftime0)<0, then PG (%)=100%×(Mean Ftest−Mean Ftime0)/(Mean Ftime0−Mean Fblank) Where: • PG: percent growth • Mean Ftime0=The average of 2 measured fluorescent intensities of reduced alamarBlue at the time just before exposure of cells to the test substance. • Mean Ftest=The average of 2 measured fluorescent intensities of alamarBlue after 72-hour exposure of cells to the test substance. • Mean Fctrl=The average of 2 measured fluorescent intensities of alamarBlue after 72-hour incubation without the test substance. • Mean Fblank=The average of 2 measured fluorescent intensities of alamarBlue in medium without cells after 72-hour incubation.

[4] = tested on: PC-3 (human prostate adenocarcinoma); assay: cells; conditions: for Percent Growth (Mean ± SEM, n = 2): 72-hour
Method: Test Substance and Concentration. Frondoside A (FAS) was dissolved in 100% DMSO and then diluted with sterile distilled water to obtain initial working solutions of 1000, 300, 100, 30, and 10 μM in 40% DMSO. […]
Cell Line and Culture Media. The tumor cell line PC-3 (human prostate adenocarcinoma), obtained from American Type Culture Collection (ATCC CRL-1435), was incubated in air atmosphere of 5% CO2 at 37° C. The culture medium used was F-12K Nutrient Mixture (Kaighn's Modification) with 3% fetal bovine serum, which was supplemented with 1% Antibiotic-Antimycotic.
as §3, with “of” for “of 100,”, “10, 3,” for “10,”, “1, 0.3 and” for “1,”, “0.1” for “0.1 and 0.01”, “6-hour” for “6 hour”
as §4, with “was” for “were”

[5] = tested on: HUVEC (human umbilical vein endothelial cells); assay: Angiogenesis, tube formation on Matrigel; type: cell-based
Method: as §1
Cell Line and Culture Media.
Evaluation of anti-proliferation for test substances. Matrigel matrix was thawed, kept on ice at 4° C. and 50 μL transferred to each well of a 96-microwell tissue culture plate. The plate was incubated at 37° C. for at least one hour to allow the matrix solution to solidify before treatment.
as §2, with “cells/well) were” for “cells/well) are”, “DMSO) was” for “DMSO) is”, “DMSO was” for “DMSO is”, “substance was” for “substance is”, “(MIC) was” for “(MIC) is”

3 beta-O-{3-O-methyl-beta-D-glucopyranosyl-(1→3)-O-beta-D-6-sulfonatoglucopyranosyl-(1→4)-O-[beta-D-xylopyranosyl-(1→2)]-O-beta-D-quinovopyranosyl-(1→2)-O-beta-D-4-sulfonatoxylopyranosyl}-holost-7-ene sodium (or potassium) salt [Frondoside B]
anti-cancer activity (cancer cells; no test described): showed anti-cancer activity | apoptotic promoting activity in cancer cells (cancer cells; no test described for Frondoside B): apoptotic promoting activity | inhibition of tube formation relative to the vehicle-treated controls [1]: significant inhibition of tube formation | angiogenesis in the animal [2]: inhibits angiogenesis

CO[C@@]12[C@H](COC(N)=O)C3=C(C(=O)C(C)=C(N)C3=O)N1C[C@@H]1N[C@@H]12 [Mitomycin, reference compound]
Percent Growth (Mean ± SEM, n = 2) ([3]; DLD-1, 0.001 μM): 96 ± 5% | Percent Growth (Mean ± SEM, n = 2) ([3]; DLD-1, 0.01 μM): 83 ± 8% | Percent Growth (Mean ± SEM, n = 2) ([3]; DLD-1, 0.1 μM): 66 ± 5% | Percent Growth (Mean ± SEM, n = 2) ([3]; DLD-1, 1 μM): 31 ± 4% | Percent Growth (Mean ± SEM, n = 2) ([3]; DLD-1, 10 μM): −11 ± 7% | TGI (Total Growth Inhibition) ([3]; DLD-1, semi-quantitative, nonlinear regression): 5.5 µM | IC50 ([3]; Homo sapiens, DLD-1, read-out: IC50 (50% Inhibition Concentration)): 0.33 µM | activity of positive control on DLD-1 growth ([3]; at <10 μM): Significant activity | IC50 ([4]; Homo sapiens, read-out: IC50 (50% Inhibition Concentration)): 0.13 µM | Percent Growth (Mean ± SEM, n = 2) ([4]; PC-3, 0.001 μM): 103 ± 1% | Percent Growth (Mean ± SEM, n = 2) ([4]; PC-3, 0.01 μM): 107 ± 1% | Percent Growth (Mean ± SEM, n = 2) ([4]; PC-3, 0.1 μM): 35 ± 0% | Percent Growth (Mean ± SEM, n = 2) ([4]; PC-3, 1 μM): 6 ± 1% | Percent Growth (Mean ± SEM, n = 2) ([4]; PC-3, 10 μM): −77 ± 2% | TGI (Total Growth Inhibition) ([4]; PC-3, semi-quantitative, nonlinear regression): 0.75 µM | activity of standard reference agent on PC-3 growth ([4]; at <10 mM): Significant activity

Cc1ccc(C(=O)Nc2ccc(S(=O)(=O)O)c3cc(S(=O)(=O)O)cc(S(=O)(=O)O)c23)cc1NC(=O)c1cccc(NC(=O)Nc2cccc(C(=O)Nc3cc(C(=O)Nc4ccc(S(=O)(=O)O)c5cc(S(=O)(=O)O)cc(S(=O)(=O)O)c45)ccc3C)c2)c1 [Suramin, reference compound]
inhibition of tube formation, standard reference agent ([5]; 10 μM): significant inhibition | inhibition at 0.3 µM ([5]; Homo sapiens, HUVEC, 0.3 μM, 18 hours, read-out: %, Inhibition of the total tube length (Mean ± SEM, n = 2)): -1 ± 8% | inhibition at 1 µM ([5]; Homo sapiens, HUVEC, 1 μM, 18 hours, read-out: %, Inhibition of the total tube length (Mean ± SEM, n = 2)): -1 ± 7% | inhibition at 3 µM ([5]; Homo sapiens, HUVEC, 3 μM, 18 hours, read-out: %, Inhibition of the total tube length (Mean ± SEM, n = 2)): 20 ± 8% | inhibition at 10 µM ([5]; Homo sapiens, HUVEC, 10 μM, 18 hours, read-out: %, Inhibition of the total tube length (Mean ± SEM, n = 2)): 74% | inhibition at 30 µM ([5]; Homo sapiens, HUVEC, 30 μM, 18 hours, read-out: %, Inhibition of the total tube length (Mean ± SEM, n = 2)): 100% | MIC (Minimum Inhibitory Concentration) ([5]; tube formation, significant inhibition ≧30%): 10 µM (≈ 13 µg/mL)
